This note sets out measurements from US20180168215A1, “NUTRITIONAL COMPOSITIONS CONTAINING INOSITOL AND USES THEREOF” (Mead Johnson Nutrition Company, priority 2016, published 2018).

The test system of one assay is hippocampal neurons. The assay can be described thus: PDL-coated bead presynaptic formation, immunostaining for synapsin1, bassoon and β-tubulin III. It counts as cell-based, rat. An excerpt: Example 1 illustrates that inositol has a does dependent effect on neurotransmission. Due to the continuum of synapse development in vivo, it is difficult to quantitatively assess synapse development. However, in order to provide at time stamp for synapse development, Example 1 is directed to a PDL-coated bead in a culture medium designed to induce synaptic formation. […] By adding the PDL-coated beads to the axonal compartment of the microfluidic compartment, it allows for the visualization of presynaptic terminal development without the overwhelming signal from somata or dendrites. Indeed, this experimental set-up allows for the subjection of distinct compartments to nutrients of interest. The method used herein is described in the reference, Taylor, A. M. et al. “A microfluidic culture platform for CNS axonal injury regeneration and transport.” Nat Methods, 2005. 2(8): p. 599-605, which is incorporated by reference. Briefly, the microfluidic chip contains four chambers, two at the left side and two at the right connected by microgrooves in the center. […] The images were taken and quantified by using confocal microscopy. […] The measurements were quantified and subjected to statistical analysis by two-way ANOVA.

Assay [1] concerns hippocampal cultures from embryonic E18 rats. The assay can be described thus: Synaptogenesis in embryonic neuronal culture, quantitative immunostaining for Bassoon, Homer and MAP2. It counts as cell-based, rat. An excerpt: Example 4 illustrates that supplementation with inositol produces strong synaptogenic effects. Nerve cells communicate with each other in the brain through specialized junctions, called synapses. These junctions start to form in the human brain before birth and continue to develop at a rapid rate in the early postnatal period. Changes in this synaptogenic process impair the wiring of the brain and can cause developmental disorders. While effects related to caloric intake and selected nutrients on general brain function have been characterized, limited information exists on the specific roles of nutrients and natural nutrients in synapse formation. Accordingly, Example 4 illustrates the effects of inositol on hippocampal neurons and analyzed them by quantitative immunostaining for synaptic markers. Dissociated neuronal cultures were prepared from rat hippocampus and used in this culture system. It was observed that neurons undergo most rapid synaptogenesis at or by day 14 in vitro (14DIV). By day 21 in vitro (21 DIV), most neurons have become mature and synapse formation occurs at a slower rate. Accordingly, testing at day 14 or 21 in vitro therefore allows for distinguishing nutrient effects at different developmental stages. The neurons were grown in either in standard neurobasal NB medium which contains 40 uM inositol according to the manufacturer; or in 200 μM inositol using custom made medium from LifeTechnology that lacks inositol and that was supplemented with inositol to 200 μM; or without inositol using just the custom made medium from the same manufacturer that lacks inositol. The neurons and synapses were determined by staining Bassoon as a presynaptic active zone marker in green fluorescence, Homer as a postsynaptic marker in red, and MAP2 as a dendrite marker in blue. […] Quantitively, increasing inositol to higher concentrations further promoted its synaptogenic effects (see FIG. 4D) at pre-synaptic sites. The pre-synapses were measured by quantifying the number of bassoon in the puncta per 10 micron dendrite. […] The results were determined by quantitative immunostaining for the presynaptic marker (Bassoon) and the excitatory postsynaptic (Homer). (See. FIG. 4E). Indeed, as shown in FIGS. 4A-4C, hippocampal cultures from embryonic E18 rats grown at the indicated inositol concentrations were analyzed by quantitative immunostaining. FIG. 4A illustrates neurons grown under control conditions and stained for the presynaptic marker Bassoon (in green), the postsynaptic scaffold protein Homer (in red), and the dendritic marker MAP2 (in blue). FIG. 4B illustrates neurons grown with supplemented inositol at 200 μM from 4-14 days in vitro. FIG. 4C illustrates neurons grown without inositol. […] Additionally, FIG. 5 illustrates that treatment with inositol promotes the alignment of pre- and post-synaptic sites. […] Hippocampal cultures from embryonic rats were analyzed by quantitative immunostaining. […] In brief, the presynaptic markers were stained with […] and are shown in green and the post-synaptic markers were stained with homer in and are shown in red. The co-localization of pre- and post-synapse was determined the appearance of a yellow signal, which is produced when green color mixes with red. The quantification was analyzed by using Imag J software and co-localization was calculated by counting the numbers of yellow puncta per […] dendrite. Briefly, hippocampal cultures from embryonic rats were analyzed by quantitative immunostaining. […] The pre-synapse size was determined by the puncta size of bassoon; while the post-synapse size by that of homer. The histochemistry images were analyzed by using Image J software.

Another assay relates to rat hippocampal neurons. The assay can be described thus: FM dye release on electrical field stimulation of neurons in microfluidic devices. It counts as cell-based. As to conditions: for releasing FM Dye as an indicator of neural transmitter release: 9DIV. An excerpt: Example 1 illustrates that inositol has a does dependent effect on neurotransmission. Due to the continuum of synapse development in vivo, it is difficult to quantitatively assess synapse development. However, in order to provide at time stamp for synapse development, Example 1 is directed to a PDL-coated bead in a culture medium designed to induce synaptic formation. […] By adding the PDL-coated beads to the axonal compartment of the microfluidic compartment, it allows for the visualization of presynaptic terminal development without the overwhelming signal from somata or dendrites. Indeed, this experimental set-up allows for the subjection of distinct compartments to nutrients of interest. The method used herein is described in the reference, Taylor, A. M. et al. “A microfluidic culture platform for CNS axonal injury regeneration and transport.” Nat Methods, 2005. 2(8): p. 599-605, which is incorporated by reference. Briefly, the microfluidic chip contains four chambers, two at the left side and two at the right connected by microgrooves in the center. The cortical and hippocampal dissociated neurons from embryonic rat (E18) and mouse (E17) were seeded in the left (somal) side of the chambers with a density of approximately 3×10^6 cells/ml, yielding approximately 3,000 cells in the somal side of the chamber. The PDL-coated nanobeads were added to the right side of the chamber. In each testing condition, the culture medium contains different nutrient. The immunohistochemistry analysis was performed in order to assess the impact on synaptic development provided by the nutrients. The cultures were fixed using 4% paraformaldehyde for 30 min at room temperature. The cultures then were washed twice with phosphate-buffered saline (PBS) for 5 min, and then permeabilized using PBS with 0.2% Triton X-100 for 30 min. To block nonspecific binding, PBS with 0.2% Triton X-100 and 10% goat serum was used. The primary antibodies were exposed to PBS with 0.2% Triton X-100 and 5% goat serum at 4° C. overnight, followed by brief rinsing of the cultures 3 times for 10 min. They were then incubated them with secondary antibody (conjugated with Alexa Fluor 488 or 568) in PBS for 1 h. The images were taken and quantified by using confocal microscopy. At embryonic Day 18, rat hippocampal neurons were plated on to microfluidic devices and inositol was added to both somal and axonal compartments from second day in vitro. Cultures were exposed with different concentrations of inositol at 200 μM, 600 μM, 1200 μM, or the control 40 μM, every 3 days by completely changing the media every three days. At 9 days in vitro (9DIV) the cultures were loaded with FM dye and electrical field stimulation of somal compartments was performed on each for about one minute.

The next assay deals with E18 hippocampal neurons. The assay can be described thus: Axon growth in microfluidic devices, immunohistochemistry with β-tubulin III. It is filed as cell-based. As to conditions: addition of 600 μM inositol vs inositol free media. An excerpt: Example 3 illustrates that inositol exposure increases neuronal axon growth. Generally, an axon is a long, slender projection of a neuron that conducts electrical impulses away from the neuron's cell body. Myelinated axons are generally known as nerve fibers. Axons make contact with other neurons at synapses. Therefore, the healthy status of a neural axon is fundamentally important for proper brain function. The integrity and growth of axons can be measured by immunohistochemistry with β-tubulin III. Indeed, illustrated herein, the absence of inositol causes axon growth to stop and truncate prematurely; while supplementation of inositol provides healthy growth of neuronal axons. […] The axons of hippocampal neurons lost continuity and disintegrated. […] Taken together, inositol is essential for axon development and higher concentrations of inositol benefits the extension of axons.

Assay [2] concerns Hippocampal cultures from embryonic rats. The assay can be described thus: Inositol plus DHA, presynaptic Bassoon puncta by quantitative immunostaining. It is filed as cell-based, rat. To be noted: compared to a DMSO control; FIG. 7. How it is done: Example 5 illustrates synergistic effect of inositol and DHA. FIG. 7 illustrates the effect of inositol in combination with DHA for presynaptic development. Hippocampal cultures from embryonic rats were analyzed by quantitative immunostaining. […] (See FIG. 7).

Regarding `O[C@H]1[C@H](O)[C@@H](O)[C@H](O)[C@@H](O)[C@H]1O` [inositol], in the assay on hippocampal neurons (10DIV hippocampal neurons, FIGS. 2A and 2B), the “synapsin 1 and bassoon clustering at the bead-axon terminals” value is “increases synapsin 1 and bassoon clustering”. Also, the presynaptic assembly entry with hippocampal neurons (inositol at 600 μM vs 40 μM control, FIG. 2A) was “significantly increases the presynaptic assembly”. Moreover, the “pre-synaptic puncta density (number of bassoon puncta per 10 micron dendrite)” value in assay [1] (compared to control as well as DHA at 20 μM, FIG. 4D) was “increase the pre-synaptic puncta density in a statistically significant manner”. Further, the “post-synaptic sites as measured by post-synaptic marker (Homer) density” value in assay [1] (higher concentrations of inositol, compared to the control and DHA at 20 μM, FIG. 4E) is “enhance post-synaptic sites”. For the same compound, the “overall health of neuron” value in assay [1] (increasing inositol) was “promotes the overall health of neuron”. For the same compound, the “density of pre- and post-synaptic specializations” value in assay [1] (increasing inositol from standard 40 μM to 200 μM) is “substantially elevates the density of pre- and post-synaptic specializations”. In assay [1] (lowest tested concentrations of inositol), the “effect on synapse number relative to DHA” value is reported as “effects comparable to DHA”. In assay [1] (supplementation from 4-14 days in vitro, FIG. 6A), the “size of presynaptic sites (Bassoon puncta size)” value is given as “increase the size of presynaptic sites”. For the same compound, the “size of postsynaptic sites (Homer puncta size)” value in assay [1] (supplementation from 4-14 days in vitro, FIG. 6B) was “increase the size”. In addition, the “co-localization of pre-synaptic (Bassoon) with post synaptic (Homer) sites” value in assay [1] (treatment from 4-14 days in vitro, FIG. 5) is listed as “increased the extent to which pre-synaptic sites (as measured by Bassoon staining) co-localized with post synaptic sites”. For the same compound, in assay [1] (treatment from 7-14 days in vitro), the synapse number result is listed as “increased synapse number”. Besides, the “releasing FM Dye as an indicator of neural transmitter release” value with rat hippocampal neurons (200 μM inositol vs control wells containing 40 μM inositol) and with rat hippocampal neurons (600 μM inositol vs control wells containing 40 μM inositol) was “significant increases in releasing FM Dye” throughout. Moreover, in the assay on rat hippocampal neurons (600 μM inositol wells), the “neural transmitter releasing, consistency of results” value was “consistent and robust results with enhanced neural transmitter releasing”. Further, the “concentration at which the highest effects on FM dye releasing were observed” value in the assay on rat hippocampal neurons (tested 200, 600, 1200 μM, dose dependent, statistically significant) worked out at 600 µM. For the same compound, in the assay on E18 hippocampal neurons, the axon growth entry was “restore and promote the healthy growth of axons”. In addition, the “presynaptic Bassoon puncta” value in assay [2] is recorded as “increased the presynaptic Basson puncta”.
